A short description of this data set: On-resin ring-closing metathesis (C=C) of bis-alkenyl beta-(1,6)-hexaglucosides, Grubbs catalyst 20 mol% per cycle, Ar bubbling. Method B (8a-8d): Grubbs II, MW 60 C, 40 min per cycle, 6 cycles for 8a and 3 for 8b-8d. Method A (8e-8g): Grubbs I, 25 C, 60 min per cycle, 3 cycles. To be noted: the molecule shown is the open-chain precursor, 16 steps.

Molecules are shown by their SMILES.

Drawing on PMC9562281, this text covers ring closure, overall yield for seven compounds.

Compound `C=CCO[C@@H]1[C@@H](OC(=O)c2ccccc2)[C@H](OC[C@H]2O[C@@H](OC[C@H]3O[C@@H](OC[C@H]4O[C@@H](OC[C@H]5O[C@@H](OC[C@H]6O[C@@H](OCCCCCN(Cc7ccc(OC)cc7[N+](=O)[O-])C(=O)OCc7ccccc7)[C@H](OC(=O)c7ccccc7)[C@@H](OC(=O)c7ccccc7)[C@@H]6OCc6ccccc6)[C@H](OC(=O)c6ccccc6)[C@@H](OCc6ccccc6)[C@@H]5OCC=C)[C@H](OC(=O)c5ccccc5)[C@@H](OC(=O)c5ccccc5)[C@@H]4OCc4ccccc4)[C@H](OC(=O)c4ccccc4)[C@@H](OC(=O)c4ccccc4)[C@@H]3OCc3ccccc3)[C@H](OC(=O)c3ccccc3)[C@@H](OC(=O)c3ccccc3)[C@@H]2OCc2ccccc2)O[C@H](CO)[C@H]1OCc1ccccc1` [8a (from 5a, -(CH2)4-)] yielded a ring closure, overall yield (28-membered ring, 1,2-dichloroethane, 4.0 h) of 12%.
Under “29-membered ring, 1,2-dichloroethane, 2.0 h”, `C=CCCO[C@@H]1[C@@H](OC(=O)c2ccccc2)[C@H](OC[C@H]2O[C@@H](OC[C@H]3O[C@@H](OC[C@H]4O[C@@H](OC[C@H]5O[C@@H](OC[C@H]6O[C@@H](OCCCCCN(Cc7ccc(OC)cc7[N+](=O)[O-])C(=O)OCc7ccccc7)[C@H](OC(=O)c7ccccc7)[C@@H](OC(=O)c7ccccc7)[C@@H]6OCc6ccccc6)[C@H](OC(=O)c6ccccc6)[C@@H](OCc6ccccc6)[C@@H]5OCC=C)[C@H](OC(=O)c5ccccc5)[C@@H](OC(=O)c5ccccc5)[C@@H]4OCc4ccccc4)[C@H](OC(=O)c4ccccc4)[C@@H](OC(=O)c4ccccc4)[C@@H]3OCc3ccccc3)[C@H](OC(=O)c3ccccc3)[C@@H](OC(=O)c3ccccc3)[C@@H]2OCc2ccccc2)O[C@H](CO)[C@H]1OCc1ccccc1` [8b (from 5b, -(CH2)5-)] came in with a ring closure, overall yield of 10%.
In the case of `C=CCCCO[C@@H]1[C@@H](OC(=O)c2ccccc2)[C@H](OC[C@H]2O[C@@H](OC[C@H]3O[C@@H](OC[C@H]4O[C@@H](OC[C@H]5O[C@@H](OC[C@H]6O[C@@H](OCCCCCN(Cc7ccc(OC)cc7[N+](=O)[O-])C(=O)OCc7ccccc7)[C@H](OC(=O)c7ccccc7)[C@@H](OC(=O)c7ccccc7)[C@@H]6OCc6ccccc6)[C@H](OC(=O)c6ccccc6)[C@@H](OCc6ccccc6)[C@@H]5OCC=C)[C@H](OC(=O)c5ccccc5)[C@@H](OC(=O)c5ccccc5)[C@@H]4OCc4ccccc4)[C@H](OC(=O)c4ccccc4)[C@@H](OC(=O)c4ccccc4)[C@@H]3OCc3ccccc3)[C@H](OC(=O)c3ccccc3)[C@@H](OC(=O)c3ccccc3)[C@@H]2OCc2ccccc2)O[C@H](CO)[C@H]1OCc1ccccc1` [8c (from 5c, -(CH2)6-)], the ring closure, overall yield (30-membered ring, 1,2-dichloroethane, 2.0 h) is 15%.
Consider `C=CCCCCO[C@@H]1[C@@H](OC(=O)c2ccccc2)[C@H](OC[C@H]2O[C@@H](OC[C@H]3O[C@@H](OC[C@H]4O[C@@H](OC[C@H]5O[C@@H](OC[C@H]6O[C@@H](OCCCCCN(Cc7ccc(OC)cc7[N+](=O)[O-])C(=O)OCc7ccccc7)[C@H](OC(=O)c7ccccc7)[C@@H](OC(=O)c7ccccc7)[C@@H]6OCc6ccccc6)[C@H](OC(=O)c6ccccc6)[C@@H](OCc6ccccc6)[C@@H]5OCC=C)[C@H](OC(=O)c5ccccc5)[C@@H](OC(=O)c5ccccc5)[C@@H]4OCc4ccccc4)[C@H](OC(=O)c4ccccc4)[C@@H](OC(=O)c4ccccc4)[C@@H]3OCc3ccccc3)[C@H](OC(=O)c3ccccc3)[C@@H](OC(=O)c3ccccc3)[C@@H]2OCc2ccccc2)O[C@H](CO)[C@H]1OCc1ccccc1` [8d (from 5d, -(CH2)7-)], for which the ring closure, overall yield (31-membered ring, 1,2-dichloroethane, 2.0 h) worked out at 13%.
In turn, `C=CCCCCO[C@H]1[C@H](OCc2ccccc2)[C@@H](OC(=O)c2ccccc2)[C@H](OC[C@H]2O[C@@H](OCCCCCN(Cc3ccc(OC)cc3[N+](=O)[O-])C(=O)OCc3ccccc3)[C@H](OC(=O)c3ccccc3)[C@@H](OC(=O)c3ccccc3)[C@@H]2OCc2ccccc2)O[C@@H]1CO[C@@H]1O[C@H](CO[C@@H]2O[C@H](CO[C@@H]3O[C@H](CO[C@@H]4O[C@H](CO)[C@@H](OCc5ccccc5)[C@H](OCCC=C)[C@H]4OC(=O)c4ccccc4)[C@@H](OCc4ccccc4)[C@H](OC(=O)c4ccccc4)[C@H]3OC(=O)c3ccccc3)[C@@H](OCc3ccccc3)[C@H](OC(=O)c3ccccc3)[C@H]2OC(=O)c2ccccc2)[C@@H](OCc2ccccc2)[C@H](OC(=O)c2ccccc2)[C@H]1OC(=O)c1ccccc1` [8e (from 5e, -(CH2)8-)] returned a ring closure, overall yield (32-membered ring, 1,2-dichloroethane, 3.0 h) of 15%.
`C=CCCCCO[C@H]1[C@H](OCc2ccccc2)[C@@H](OC(=O)c2ccccc2)[C@H](OC[C@H]2O[C@@H](OCCCCCN(Cc3ccc(OC)cc3[N+](=O)[O-])C(=O)OCc3ccccc3)[C@H](OC(=O)c3ccccc3)[C@@H](OC(=O)c3ccccc3)[C@@H]2OCc2ccccc2)O[C@@H]1CO[C@@H]1O[C@H](CO[C@@H]2O[C@H](CO[C@@H]3O[C@H](CO[C@@H]4O[C@H](CO)[C@@H](OCc5ccccc5)[C@H](OCCCC=C)[C@H]4OC(=O)c4ccccc4)[C@@H](OCc4ccccc4)[C@H](OC(=O)c4ccccc4)[C@H]3OC(=O)c3ccccc3)[C@@H](OCc3ccccc3)[C@H](OC(=O)c3ccccc3)[C@H]2OC(=O)c2ccccc2)[C@@H](OCc2ccccc2)[C@H](OC(=O)c2ccccc2)[C@H]1OC(=O)c1ccccc1` [8f (from 5f, -(CH2)9-)] returned a ring closure, overall yield (33-membered ring, 1,2-dichloroethane, 3.0 h) of 14%.
For the setting “34-membered ring, 1,2-dichloroethane, 3.0 h”, `C=CCCCCO[C@@H]1[C@@H](OC(=O)c2ccccc2)[C@H](OC[C@H]2O[C@@H](OC[C@H]3O[C@@H](OC[C@H]4O[C@@H](OC[C@H]5O[C@@H](OC[C@H]6O[C@@H](OCCCCCN(Cc7ccc(OC)cc7[N+](=O)[O-])C(=O)OCc7ccccc7)[C@H](OC(=O)c7ccccc7)[C@@H](OC(=O)c7ccccc7)[C@@H]6OCc6ccccc6)[C@H](OC(=O)c6ccccc6)[C@@H](OCc6ccccc6)[C@@H]5OCCCCC=C)[C@H](OC(=O)c5ccccc5)[C@@H](OC(=O)c5ccccc5)[C@@H]4OCc4ccccc4)[C@H](OC(=O)c4ccccc4)[C@@H](OC(=O)c4ccccc4)[C@@H]3OCc3ccccc3)[C@H](OC(=O)c3ccccc3)[C@@H](OC(=O)c3ccccc3)[C@@H]2OCc2ccccc2)O[C@H](CO)[C@H]1OCc1ccccc1` [8g (from 5g, -(CH2)10-)] gave a ring closure, overall yield of 17%.
